From patent publication US20220218700A1, “COMBINATION OF AN ?2-ADRENOCEPTOR SUBTYPE C (ALPHA-2C) ANTAGONISTS WITH A TASK1/3 CHANNEL BLOCKER FOR THE TREATMENT OF SLEEP APNEA” (Bayer Aktiengesellschaft, priority 2019, published 2022) come the findings set out here.

This assay has as its system upper airway collapsibility. Kind of assay: pig model of obstructive sleep apnea (OSA): collapse of the upper respiratory tract induced by negative pressure in anaesthetized, spontaneously breathing pigs. The format is in vivo, German Landrace pigs. Particulars: for effect on upper airway collapsibility: all negative pressures of −50, −100 and −150 cm H2O. An excerpt: The therapeutic potential of the combination of an α2-Adrenoceptor subtype C (alpha-2C) antagonists with a TASK1/3 channel blocker according to the present invention in sleep apnea has been assessed preclinically in a pig model of obstructive sleep apnea (OSA).
Using negative pressure. it is possible to induce collapse and thus obstruction of the upper respiratory tract in anaesthetized, spontaneously breathing pigs (Wirth K. J. et al., Sleep 36(5) (2013) pp. 699-708).
German Landrace pigs are used for the model. The pigs are anaesthetized and tracheotomized. Two tracheal cannulas are inserted into the trachea, one into the rostral part and the other into the caudal part of the trachea. Using a connection piece. the rostral cannula is connected to a tube to the negative pressure device and to the distal tracheal cannula. The distal tracheal cannula is additionally connected to a tube with an open end to atmosphere via a connection piece that served for free tracheal breathing, circumventing the upper airway. By appropriate opening and clamping of those tubes breathing can be switched from nasal breathing to breathing through the caudal tracheal cannula, circumventing the upper airway. and the (isolated) upper airway can be connected to the negative pressure device, causing airflow in the inspiratory direction.
At certain points in time. the collapsibility of the upper respiratory tract is tested by having the pig breathe via the caudal cannula and applying negative pressures of −50, −100 and −150 cm water head (cm H2O) to the upper respiratory tract. This causes the upper respiratory tract to collapse, which manifests itself in an interruption of the airflow and a pressure drop in the tube system. This test is conducted prior to the administration of the test substance and at certain intervals after the administration of the test substance. An appropriately effective test substance can prevent this collapse of the respiratory tract in the inspiratory phase.

Setting [1] is: time 0 min (time point of i.v. bolus/start of infusion of alpha-2C antagonist).
Where [2] appears, read: time 10 min after i.v. bolus and start of i.v. infusion 0.13 μg/kg/h of alpha-2C antagonist, before nasal TASK1/3 blocker.
Where [3] appears, read: time 30 min after i.v. bolus and start of i.v. infusion 0.13 μg/kg/h of alpha-2C antagonist, before nasal TASK1/3 blocker.
[4] abbreviates: time 60 min after i.v. bolus and start of i.v. infusion 0.13 μg/kg/h of alpha-2C antagonist, before nasal TASK1/3 blocker.
Where [5] appears, read: time 90 min after i.v. bolus and start of i.v. infusion 0.13 μg/kg/h of alpha-2C antagonist, before nasal TASK1/3 blocker.
Setting [6] is: time 120 min after i.v. bolus and start of i.v. infusion 0.13 μg/kg/h of alpha-2C antagonist, before nasal TASK1/3 blocker.
Setting [7] is: time 150 min after i.v. bolus and start of i.v. infusion 0.13 μg/kg/h of alpha-2C antagonist, before nasal TASK1/3 blocker.
[8] abbreviates: time 60 min after intranasal administration of 0.3 μg, TASK1/3 blocker alone.

`COCc1cccnc1N1CCN(C[C@H]2COc3ccccc3O2)CC1` [(S)-1-((2,3-dihydrobenzo[b][1,4]dioxin-2-yl)methyl)-4-(3-(methoxymethyl)pyridin-2-yl)piperazine]: the “effectiveness of the dose on upper airway collapsibility” value (alpha-2C antagonist alone, i.v. bolus 0.3μg/kg + i.v. infusion 0.13 μg/kg/h) is “non effective dose”. Also, the “effect on upper airway collapsibility” value was “inhibited upper airway collapsibility” (i.v. bolus 0.3μg/kg + i.v. infusion 0.13 μg/kg/h for five hours, only at time point 30 min after bolus and start of infusion); “upper airway collapsibility was induced” (i.v. bolus 0.3μg/kg + i.v. infusion 0.13 μg/kg/h, time point 120 min after bolus and start of infusion). In addition, the “Percent pigs without collaps −50 cm H2O” value runs as follows: under setting [1], 0%; under setting [2], 0%; under setting [3], 100%; under setting [4], 100%; under setting [5], 50%; under setting [6], 0%. In addition, under setting [7], the “Percent pigs without collaps −50 cm H2O” value is given as 0%. Moreover, the “Percent pigs without collaps −100 cm H2O” value was 0% under setting [1]; 0% under setting [2]; 100% under setting [3]; 100% under setting [4]; 0% under setting [5]; 0% under setting [6]. Moreover, under setting [7], the “Percent pigs without collaps −100 cm H2O” value is given as 0%. Also, the “Percent pigs without collaps −150 cm H2O” value turned out to be 0% under setting [1]; 0% under setting [2]; 100% under setting [3]; 50% under setting [4]; 0% under setting [5]; 0% under setting [6]. The “Percent pigs without collaps −150 cm H2O” value under setting [7] is recorded as 0%.

On to `COc1cccc(C(=O)N2CCN(Cc3c(-c4ccc(Cl)cc4)nc4ccccn34)CC2)n1` [(4-{[2-(4-Chlorophenyl)imidazo[1,2-a]pyridin-3-yl]methyl}piperazin-1-yl)(6-methoxypyridin-2-yl)methanone], for which the “effectiveness of the dose on upper airway collapsibility” value (TASK1/TASK3 channel blocker alone, 0.3 μg) is on record as “non effective dose”. Under setting [8], the “Percent pigs without collaps −50 cm H2O” value was determined as 0%, the “Percent pigs without collaps −100 cm H2O” value was 0% and the “Percent pigs without collaps −150 cm H2O” value is 0%.
